Experimental data published in US12723063B2, “GIPR-agonist compounds” (Eli Lilly and Company, priority 2019, dated 2026).
*1 amine or outer side, *2 acyl side, *3 side chain or, on linkers, in order; H or OH if unused. Where a SMILES comes first, the peptide text is derived from it. Side-chain parts run from the residue outwards. [ ]: non-standard residue; d: D form. The star is where a group is joined. C20 diacid = O=C(O)CCCCCCCCCCCCCCCCCCC(=O)*; C18 diacid = O=C(O)CCCCCCCCCCCCCCCCC(=O)*; αMePhe(2-F) = C[C@](N)(Cc1ccccc1F)C(=O)O; γGlu = O=C(O)[C@H](CCC(=O)[*:2])N[*:1]; αMeL = CC(C)C[C@](C)(N)C(=O)O; Orn = NCCC[C@H](N)C(=O)O; AEEA = NCCOCCOCC(=O)O; Aib = CC(C)(N)C(=O)O

Experiments:
[1] = molecular target: T1, human glucose-dependent insulinotropic peptide receptor (GIPR) (Homo sapiens, UniProt P48546); assay: cAMP functional assay (HTRF) in HEK293 cells in presence of 0.1% casein; type: cell-based; settings: HEK293 cells expressing human GIPR, geometric mean, read-out: hGIPR cAMP Rel EC50 nM (SEM, n)
T1 construct: expressed in transfected cells; host or cells: HEK293
T1 sequence (P48546 22-466): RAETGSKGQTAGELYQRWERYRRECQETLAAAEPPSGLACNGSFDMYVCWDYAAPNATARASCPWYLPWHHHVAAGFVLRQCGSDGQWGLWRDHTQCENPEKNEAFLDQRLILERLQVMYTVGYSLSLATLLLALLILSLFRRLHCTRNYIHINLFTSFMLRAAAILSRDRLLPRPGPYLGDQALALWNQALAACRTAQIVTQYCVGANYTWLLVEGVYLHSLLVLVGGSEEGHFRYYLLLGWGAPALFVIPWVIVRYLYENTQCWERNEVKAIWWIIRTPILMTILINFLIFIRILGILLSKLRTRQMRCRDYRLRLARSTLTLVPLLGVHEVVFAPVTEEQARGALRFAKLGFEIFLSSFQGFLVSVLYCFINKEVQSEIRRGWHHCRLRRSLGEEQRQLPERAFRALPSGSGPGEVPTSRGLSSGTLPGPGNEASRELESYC

human GIPR = molecular target: T2, human GIPR (Homo sapiens, UniProt P48546); assay: [125I]-GIP binding, SPA with WGA beads, 0.1% bacitracin; settings: geometric mean, read-out: hGIPR Ki
T2 construct: expressed in transfected cells; crude membranes
T2 sequence (P48546 22-466): T1 sequence (P48546 22-466)
In short: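 Ki values are geometric means (SEM, n independent days), derived from four-parameter nonlinear regression of IC50. Membranes came from hGIPR-expressing CHO cells.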

Compound | EC50 [1] [nM] | Ki (human GIPR) [nM]
CC[C@H](C)[C@H](NC(=O)[C@H](CCCN)NC(=O)[C@H](CC(=O)O)NC(=O)[C@H](CC(C)C)NC(=O)[C@](C)(CC(C)C)NC(=O)[C@@H](NC(=O)[C@H](CO)NC(=O)[C@H](Cc1ccc(O)cc1)NC(=O)[C@H](CC(=O)O)NC(=O)[C@H](CO)NC(=O)[C@@H](NC(=O)[C@H](Cc1ccccc1)NC(=O)[C@@H](NC(=O)CNC(=O)[C@H](CCC(=O)O)NC(=O)C(C)(C)NC(=O)[C@@H](N)Cc1ccc(O)cc1)[C@@H](C)O)[C@@H](C)CC)[C@@H](C)CC)C(=O)N[C@@H](Cc1c[nH]cn1)C(=O)N[C@@H](CCC(N)=O)C(=O)NC(C)(C)C(=O)N[C@@H](CCC(=O)O)C(=O)N[C@@H](Cc1ccccc1)C(=O)N[C@H](C(=O)N[C@H](CCC(=O)O)C(=O)N[C@@H](Cc1ccc(O)cc1)C(=O)N[C@@H](CCCCNC(=O)COCCOCCNC(=O)COCCOCCNC(=O)CC[C@H](NC(=O)CCCCCCCCCCCCCCCCCCC(=O)O)C(=O)O)C(=O)N[C@@H](CC(C)C)C(=O)N[C@@H](CCC(=O)O)C(=O)NCC(=O)NCC(=O)N1CCC[C@H]1C(=O)N[C@@H](CO)C(=O)N[C@@H](CO)C(=O)NCC(=O)N[C@@H](C)C(=O)N1CCC[C@H]1C(=O)N1CCC[C@H]1C(=O)N1CCC[C@H]1C(=O)N[C@@H](CO)C(N)=O)C(C)C [Example 102] (H-Y[Aib]EGTFISDYSI[αMeL]LD[Orn]IHQ[Aib]EFV[dE]YK([AEEA-AEEA-γGlu-C20 diacid])LEGGPSSGAPPPS-NH2) | 0.0166 | 0.164
CC[C@H](C)[C@H](NC(=O)[C@H](Cc1ccccc1)NC(=O)[C@@H](NC(=O)CNC(=O)[C@H](CCC(=O)O)NC(=O)C(C)(C)NC(=O)[C@@H](N)Cc1ccc(O)cc1)[C@@H](C)O)C(=O)N[C@@H](CO)C(=O)N[C@@H](CC(=O)O)C(=O)N[C@@H](Cc1ccc(O)cc1)C(=O)N[C@@H](CO)C(=O)N[C@H](C(=O)N[C@@](C)(CC(C)C)C(=O)N[C@@H](CC(C)C)C(=O)N[C@@H](CC(=O)O)C(=O)N[C@@H](CCCN)C(=O)N[C@@H](CCCCNC(=O)COCCOCCNC(=O)COCCOCCNC(=O)CC[C@H](NC(=O)CCCCCCCCCCCCCCCCCCC(=O)O)C(=O)O)C(=O)N[C@@H](Cc1c[nH]cn1)C(=O)N[C@@H](CCC(N)=O)C(=O)NC(C)(C)C(=O)N[C@@H](CC(=O)O)C(=O)N[C@@H](Cc1ccccc1)C(=O)N[C@H](C(=O)N[C@@H](CCC(=O)O)C(=O)N[C@@H](Cc1ccncc1)C(=O)N[C@@H](CC(C)C)C(=O)N[C@@H](CC(C)C)C(=O)N[C@@H](CCC(=O)O)C(=O)N[C@@H](C)C(=O)NCC(=O)N1CCC[C@H]1C(=O)N[C@@H](CO)C(=O)N[C@@H](CO)C(=O)NCC(=O)N[C@@H](C)C(=O)N1CCC[C@H]1C(=O)N1CCC[C@H]1C(=O)N1CCC[C@H]1C(=O)N[C@@H](CO)C(N)=O)C(C)C)[C@@H](C)CC [Example 4] | 0.0182 | 0.062
CC[C@H](C)[C@H](NC(=O)[C@H](CO)NC(=O)[C@H](Cc1ccc(O)cc1)NC(=O)[C@H](CC(=O)O)NC(=O)[C@H](CO)NC(=O)[C@@H](NC(=O)[C@](C)(Cc1ccccc1F)NC(=O)[C@@H](NC(=O)CNC(=O)[C@H](CCC(=O)O)NC(=O)C(C)(C)NC(=O)[C@@H](N)Cc1ccc(O)cc1)[C@@H](C)O)[C@@H](C)CC)C(=O)N[C@@H](C)C(=O)N[C@@H](CC(C)C)C(=O)N[C@@H](CC(=O)O)C(=O)N[C@@H](CCCCN)C(=O)N[C@H](C(=O)N[C@@H](Cc1c[nH]cn1)C(=O)N[C@@H](CCC(N)=O)C(=O)NC(C)(C)C(=O)N[C@@H](CC(=O)O)C(=O)N[C@@H](Cc1ccccc1)C(=O)N[C@H](C(=O)N[C@@H](CCC(=O)O)C(=O)N[C@@H](Cc1ccc(O)cc1)C(=O)N[C@@H](CCCCNC(=O)COCCOCCNC(=O)COCCOCCNC(=O)CC[C@H](NC(=O)CCCCCCCCCCCCCCCCCCC(=O)O)C(=O)O)C(=O)N[C@@H](CC(C)C)C(=O)N[C@@H](CCC(=O)O)C(=O)NCC(=O)NCC(=O)N1CCC[C@H]1C(=O)N[C@@H](CO)C(=O)N[C@@H](CO)C(=O)NCC(=O)N[C@@H](C)C(=O)N1CCC[C@H]1C(=O)N1CCC[C@H]1C(=O)N1CCC[C@H]1C(=O)N[C@@H](CO)C(N)=O)C(C)C)[C@@H](C)CC [Example 99] (H-Y[Aib]EGT[αMePhe(2-F)]ISDYSIALDKIHQ[Aib]DFVEYK([AEEA-AEEA-γGlu-C20 diacid])LEGGPSSGAPPPS-NH2) | 0.00454 | 0.0341
CC[C@H](C)[C@H](NC(=O)[C@H](CCCN)NC(=O)[C@H](CC(=O)O)NC(=O)[C@H](CC(C)C)NC(=O)[C@](C)(CC(C)C)NC(=O)[C@@H](NC(=O)[C@H](CO)NC(=O)[C@H](Cc1ccc(O)cc1)NC(=O)[C@H](CC(=O)O)NC(=O)[C@H](CO)NC(=O)[C@@H](NC(=O)[C@H](Cc1ccccc1)NC(=O)[C@@H](NC(=O)CNC(=O)[C@H](CCC(=O)O)NC(=O)C(C)(C)NC(=O)[C@@H](N)Cc1ccc(O)cc1)[C@@H](C)O)[C@@H](C)CC)[C@@H](C)CC)C(=O)N[C@@H](Cc1c[nH]cn1)C(=O)N[C@@H](CCC(N)=O)C(=O)NC(C)(C)C(=O)N[C@@H](CCC(=O)O)C(=O)N[C@@H](Cc1ccccc1)C(=O)N[C@H](C(=O)N[C@H](CCC(=O)O)C(=O)N[C@@H](Cc1ccc(O)cc1)C(=O)N[C@@H](CCCCNC(=O)COCCOCCNC(=O)COCCOCCNC(=O)CC[C@H](NC(=O)CCCCCCCCCCCCCCCCC(=O)O)C(=O)O)C(=O)N[C@@H](CC(C)C)C(=O)N[C@@H](CCC(=O)O)C(=O)NCC(=O)NCC(=O)N1CCC[C@H]1C(=O)N[C@@H](CO)C(=O)N[C@@H](CO)C(=O)NCC(=O)N[C@@H](C)C(=O)N1CCC[C@H]1C(=O)N1CCC[C@H]1C(=O)N1CCC[C@H]1C(=O)N[C@@H](CO)C(N)=O)C(C)C [Example 7] | 0.0219 | 0.193
CC[C@H](C)[C@H](NC(=O)[C@H](CO)NC(=O)[C@H](Cc1ccc(O)cc1)NC(=O)[C@H](CC(=O)O)NC(=O)[C@H](CO)NC(=O)[C@@H](NC(=O)[C@H](Cc1ccccc1)NC(=O)[C@@H](NC(=O)CNC(=O)[C@H](CCC(=O)O)NC(=O)[C@@H](C)NC(=O)[C@@H](N)Cc1ccc(O)cc1)[C@@H](C)O)[C@@H](C)CC)C(=O)N[C@@H](CC(C)C)C(=O)N[C@@H](CC(C)C)C(=O)N[C@@H](CC(=O)O)C(=O)N[C@@H](CCCCN)C(=O)N[C@@H](CCCCNC(=O)COCCOCCNC(=O)COCCOCCNC(=O)CC[C@H](NC(=O)CCCCCCCCCCCCCCCCC(=O)O)C(=O)O)C(=O)N[C@@H](C)C(=O)N[C@@H](CCC(N)=O)C(=O)NC(C)(C)C(=O)N[C@@H](CC(=O)O)C(=O)N[C@@H](Cc1ccccc1)C(=O)N[C@H](C(=O)N[C@@H](CCC(=O)O)C(=O)N[C@@H](Cc1c[nH]c2ccccc12)C(=O)N[C@@H](CC(C)C)C(=O)N[C@@H](CC(C)C)C(=O)N[C@@H](C)C(=O)N[C@@H](CCC(N)=O)C(=O)NCC(=O)N1CCC[C@H]1C(=O)N[C@@H](CO)C(=O)N[C@@H](CO)C(=O)NCC(=O)N[C@@H](C)C(=O)N1CCC[C@H]1C(=O)N1CCC[C@H]1C(=O)N1CCC[C@H]1C(=O)N[C@@H](CO)C(N)=O)C(C)C [Example 16] (H-Y[dA]EGTFISDYSILLDKK([AEEA-AEEA-γGlu-C18 diacid])AQ[Aib]DFVEWLLAQGPSSGAPPPS-NH2) | 0.00937 | 0.0438
